Laboratory results reported in patent publication US10925865B2, “Charged ion channel blockers and methods for use” (Nocion Therapeutics, Inc., priority 2019, dated 2021).

Tests used:
[1] = system: artificial lipid membrane; experiment: PAMPA membrane permeability assay; format: in vitro ADME; conditions: pH 7.4 buffer, GIT lipid, 4 hours incubation
Protocol: The PAMPA assay (pION, Inc., Woburn Mass.) was used to determine the ability of compounds of the invention to cross an artificial lipid membrane by passive diffusion. Test compounds were dissolved in DMSO (10 mM) and diluted 200-fold in buffer (pION Inc., pH 7.4) to provide 50 uM stock solutions. Buffer (150 μL) was added to a UV blank plate and stock solutions (150 μL) were transferred to a UV reference plate. The blank and reference spectrum were read using a spectrophotometer. Stock solutions (200 μL) were added to the donor plate of the PAMPA sandwich plate and an accept plate painted with GIT lipid (pION Inc., 5 μL) was placed on top. Buffer (200 μL) was added to the acceptor plate and the PAMPA sandwich plate was incubated for 4 hours. Aliquots (150 μL) from the acceptor plate were added to a UV plate and read as acceptor spectrum. Aliquots (150 μL) of the donor solutions were added to a UV analysis plate and read as donor spectrum. The permeability coefficient of test compounds was calculated using PAMPA Explorer™ software (version 3.5.0.4) based on the AUC of the reference plate, the donor plate, and the acceptor plate.

[2] = target: T1, NaV1.7 (Homo sapiens, UniProt Q15858); experiment: Nav1.7 whole cell patch clamp, internal block (intracellular inhibition); format: cell-based; conditions: test concentration 10 μM, compound in internal solution, 5 Hz stimulation
T1 construct: expressed in transfected cells; host or cells: Tetracycline-inducible cell line kept under hygromycin and blasticidin selection
T1 sequence (Q15858 whole entry): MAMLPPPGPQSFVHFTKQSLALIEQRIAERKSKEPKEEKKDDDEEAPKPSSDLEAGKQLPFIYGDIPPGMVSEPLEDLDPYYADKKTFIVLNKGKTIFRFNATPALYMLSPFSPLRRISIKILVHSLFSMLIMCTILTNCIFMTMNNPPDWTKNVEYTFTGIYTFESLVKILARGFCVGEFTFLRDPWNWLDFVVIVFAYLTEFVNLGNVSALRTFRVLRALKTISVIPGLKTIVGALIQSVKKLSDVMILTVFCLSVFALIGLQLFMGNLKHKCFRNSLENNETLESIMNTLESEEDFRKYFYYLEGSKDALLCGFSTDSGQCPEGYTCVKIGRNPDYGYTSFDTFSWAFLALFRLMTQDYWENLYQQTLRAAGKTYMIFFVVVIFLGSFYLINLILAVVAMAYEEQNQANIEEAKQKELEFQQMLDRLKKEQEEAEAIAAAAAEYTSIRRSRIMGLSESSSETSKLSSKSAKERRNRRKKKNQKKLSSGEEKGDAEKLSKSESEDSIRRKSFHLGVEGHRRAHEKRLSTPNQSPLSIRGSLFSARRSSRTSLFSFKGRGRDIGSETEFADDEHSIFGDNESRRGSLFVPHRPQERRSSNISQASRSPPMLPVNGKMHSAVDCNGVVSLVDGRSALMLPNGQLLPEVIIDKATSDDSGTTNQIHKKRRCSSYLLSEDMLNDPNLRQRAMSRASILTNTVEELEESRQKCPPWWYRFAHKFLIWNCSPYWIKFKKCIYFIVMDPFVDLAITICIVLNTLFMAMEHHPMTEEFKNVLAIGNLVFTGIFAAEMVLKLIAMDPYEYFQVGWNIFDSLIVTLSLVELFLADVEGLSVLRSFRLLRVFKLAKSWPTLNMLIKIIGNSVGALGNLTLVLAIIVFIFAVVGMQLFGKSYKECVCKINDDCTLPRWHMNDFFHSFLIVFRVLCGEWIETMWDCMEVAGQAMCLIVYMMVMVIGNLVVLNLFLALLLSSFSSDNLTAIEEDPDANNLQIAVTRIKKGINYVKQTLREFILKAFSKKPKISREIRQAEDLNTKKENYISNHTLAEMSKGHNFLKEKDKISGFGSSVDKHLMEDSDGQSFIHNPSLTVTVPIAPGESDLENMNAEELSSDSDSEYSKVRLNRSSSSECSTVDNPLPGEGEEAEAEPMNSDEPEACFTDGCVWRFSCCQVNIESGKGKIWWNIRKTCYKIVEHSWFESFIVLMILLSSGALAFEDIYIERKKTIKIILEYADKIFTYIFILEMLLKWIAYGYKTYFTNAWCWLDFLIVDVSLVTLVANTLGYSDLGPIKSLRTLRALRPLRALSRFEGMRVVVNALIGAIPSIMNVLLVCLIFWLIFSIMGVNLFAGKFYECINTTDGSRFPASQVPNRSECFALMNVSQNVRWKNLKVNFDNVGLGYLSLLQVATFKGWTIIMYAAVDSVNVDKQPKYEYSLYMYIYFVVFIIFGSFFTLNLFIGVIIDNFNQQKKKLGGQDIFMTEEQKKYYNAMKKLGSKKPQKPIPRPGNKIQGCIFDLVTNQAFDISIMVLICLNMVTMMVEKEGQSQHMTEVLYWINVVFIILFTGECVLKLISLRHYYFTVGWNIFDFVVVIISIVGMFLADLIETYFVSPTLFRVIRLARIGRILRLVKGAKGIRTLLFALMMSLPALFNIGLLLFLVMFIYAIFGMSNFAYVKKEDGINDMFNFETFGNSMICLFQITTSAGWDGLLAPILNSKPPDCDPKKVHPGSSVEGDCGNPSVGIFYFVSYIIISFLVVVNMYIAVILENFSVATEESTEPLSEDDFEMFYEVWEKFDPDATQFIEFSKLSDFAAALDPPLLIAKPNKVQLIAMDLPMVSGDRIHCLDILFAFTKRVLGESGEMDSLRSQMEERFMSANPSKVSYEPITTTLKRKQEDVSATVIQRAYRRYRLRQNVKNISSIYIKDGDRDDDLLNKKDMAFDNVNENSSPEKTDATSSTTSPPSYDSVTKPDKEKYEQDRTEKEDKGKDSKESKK
Protocol: (§1) The compounds were synthesized according to the described method and tested for the ability to inhibit voltage-gated sodium channels.
(§2) NaV1.7 was expressed upon induction with tetracycline. Cells were cultured in DMEM containing 10% dialyzed Fetal Bovine Serum (VWR, Radnor, Pa.), 1% Glutamax (VWR, Radnor, Pa.), 1% Penicillin-Streptomycin (VWR, Radnor, Pa.), 100 mg/L Hygromycin (Thermo Fisher Scientific, Waltham, Mass. and 5 mg/L Blasticidin (Alfa Aesar, Haverhill, Mass.). Cells were grown and maintained at 37° C. in a humidified environment containing 10% CO2 in air. Cells were detached from the culture flask for passage and harvested using 0.05% Trypsin-EDTA (Thermo Fisher Scientific, Waltham, Mass.). To induce NaV1.7, cells were induced with tetracycline ([…], IBI Scientific, Peosta, Iowa) the day before recording and plated onto 24-well plates. Cells were washed with DPBS (VWR, Radnor, Pa.), trypsinized and then triturated five times in 10 mL of growth media to break apart cell aggregates. For one 24-well plate, 2 mL of cell suspension was mixed with 23 mL of fresh growth media and […] tetracycline added. 1 ml of mixed media with cells was then added to each well of a 24-well plate, with a 12 mm coverslip already placed in the bottom of the well. Cells were then incubated in 37° C. and 10% CO2 overnight.
(§3) The intracellular solution contained the following (in mM) CsCl 135, NaCl 10, EGTA 10, HEPES 10, MgCl2 2, adjusted to pH 7.2 with CsOH. The external solution was a normal Ringer solution containing (in mM) NaCl 155, HEPES 10, glucose 10, KCl 3.5, CaCl2 1.5, MgCl2 1 adjusted to pH 7.4 with NaOH. CsCl is from Alfa Aesar, Haverhill, Mass. All other chemicals are from Sigma-Aldrich, St. Louis, Mo. In order to test the degree of internal block by test compounds the compounds were dissolved in internal solution at the indicated test concentration. […] In order to test the degree of external block by test compounds the compounds were dissolved in external solution at the indicated test concentration.
(§4) 18-24 hours after cells were induced with tetracycline, coverslips were placed into a chamber filled with Normal Ringer solution at room temperature and the chamber placed on a microscope. Pipettes were pulled from borosilicate glass on a P97 puller (Sutter Instrument, Novato, Calif.) and polished with a MF-830 Microforge (Narishige International USA, Inc., Amityville, N.Y.) to have a resistance of 1.5-2.5 MQ when filled with CsCl internal solution at room temperature. Healthy cells (those that are round and translucent with no visible blemishes) were chosen for seal formation. A seal was formed between the pipette and the cell, and a brief pulse of suction was used to “break in” and establish the whole-cell configuration. The membrane potential was held at −100 mV before the voltage protocol began. Only cells with series resistance between 1.5-5 MQ were retained for analysis. The voltage protocol was as follows: Cells were held at −100 mV for 12 ms followed by a hyperpolarizing step to −105 mV for 12 ms to monitor the leak. Cells were then stepped back to −100 mV for 40 ms. Cells were then depolarized to −20 mV for 10 ms and then returned to −100 mV for 26 ms (The FIGURE).
(§5) Once the recording was started, the voltage protocol was run at 30 second intervals for 5 minutes to get a stable baseline. […] Currents were recorded using PatchMaster software with Heka EPC10 (HEKA Electronics, Lambrecht, Germany). […]

[3] = target: T1, NaV1.7; experiment: Nav1.7 whole cell patch clamp, external block (extracellular application); format: cell-based; conditions: test concentration 30 μM, compound in external solution for 5 minutes, 5 Hz stimulation
Protocol: as §1, §2, §3, §4, §5

| SMILES | Papp at 4 h, 50 uM [1] [×10⁻⁶ cm/s] | inhibition at 10 µM [2] [%] | inhibition at 30 µM [3] [%] |
| --- | --- | --- | --- |
| Cc1cccc(C)c1NC(=O)C[n+]1cccc(-c2ccccc2)c1.[Br-] [1′A, 1-(2-((2,6-dimethylphenyl)amino)-2-oxoethyl)-3-phenylpyridin-1-ium bromide] | < 1 | > 75 | < 45 |
| Cc1cccc(C)c1NC(=O)C[n+]1ccccc1-c1ccccc1.[Br-] [2′A, 1-(2-((2,6-dimethylphenyl)amino)-2-oxoethyl)-2-phenylpyridin-1-ium bromide] | < 1 | > 75 | < 45 |

The next lines start with the values.

| Papp at 4 h, 50 uM [1] [×10⁻⁶ cm/s] | inhibition at 10 µM [2] [%] | inhibition at 30 µM [3] [%] | SMILES |
| --- | --- | --- | --- |
| < 1 | > 75 | < 45 | CCc1ccc[n+](CC(=O)Nc2c(C)cccc2C)c1.[Br-] [3′A, 1-(2-((2,6-dimethylphenyl)amino)-2-oxoethyl)-3-ethylpyridin-1-ium bromide] |
| < 1 | > 75 | < 45 | CCc1cccc[n+]1CC(=O)Nc1c(C)cccc1C.[Br-] [4′A, 1-(2-((2,6-dimethylphenyl)amino)-2-oxoethyl)-2-ethylpyridin-1-ium bromide] |
| – | > 75 | < 45 | CCOC(=O)c1ccc[n+](CC(=O)Nc2c(C)cccc2C)c1 [5′A, 1-(2-((2,6-dimethylphenyl)amino)-2-oxoethyl)-3-(ethoxycarbonyl)pyridin-1-ium bromide] |
